Measurements from PubChem BioAssay (NCI).
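Exposure lasted 48 hours, with cells grown in 96-well plates and compounds tested at five concentrations. GI50 = concentration required for 50% inhibition of growth. TGI denotes the concentration required for complete inhibition of growth.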

Key:
Assay in all cases: inhibition of tumour cell growth, NCI panel, 48 h
[1] = system: IGROV1 ovarian
[2] = system: OVCAR-3 ovarian
[3] = system: OVCAR-8 ovarian
[4] = system: U251 CNS
[5] = system: MALME-3M melanoma
[6] = system: HOP-62 NSCLC
[7] = system: LOX IMVI melanoma
[8] = system: MDA-MB-231 breast
[9] = system: UACC-62 melanoma
[10] = system: CCRF-CEM leukemia
[11] = system: SK-MEL-28 melanoma
[12] = system: CAKI-1 renal
[13] = system: NCI-H522 lung
[14] = system: SR leukemia
[15] = system: KM12 colon
[16] = system: SNB-75 CNS
[17] = system: OVCAR-4 ovarian
[18] = system: SK-OV-3 ovarian
[19] = system: SN12C renal
[20] = system: BT-549 breast
[21] = system: OVCAR-5 ovarian
[22] = system: HOP-92 NSCLC
[23] = system: SK-MEL-5 melanoma
[24] = system: A549 NSCLC
[25] = system: SK-MEL-2 melanoma
[26] = system: COLO 205 colon
[27] = system: EKVX NSCLC
[28] = system: SW-620 colon
[29] = system: RPMI-8226 leukemia
[30] = system: PC-3 prostate
[31] = system: HL-60(TB) leukemia
[32] = system: HT29 colon
[33] = system: NCI/ADR-RES ovarian
[34] = system: HS 578T breast
[35] = system: HCT-116 colon
[36] = system: T-47D breast
[37] = system: UACC-257 melanoma
[38] = system: HCT-15 colon
[39] = system: NCI-H226 lung
[40] = system: UO-31 renal
[41] = system: SF-295 CNS
[42] = system: TK-10 renal
[43] = system: HCC-2998 colon
[44] = system: MCF7 breast
[45] = system: A498 renal
[46] = system: M14 melanoma
[47] = system: RXF 393 renal
[48] = system: 786-0 renal
[49] = system: DU-145 prostate
[50] = system: NCI-H460 lung
[51] = system: MDA-MB-435
[52] = system: MOLT-4 leukemia
[53] = system: SF-268 CNS
[54] = system: SNB-19 CNS
[55] = system: SF-539 CNS
[56] = system: ACHN renal
[57] = system: K-562 leukemia

Molecule `COc1cc(OC)c(S(N)(=O)=O)cc1C(=O)/C=C/c1ccc(C)cc1` has a GI50 [1] of 3.56 µM, a TGI [1] of 14.4 µM and a GI50 [2] of 3.05 µM. For the same molecule, the TGI [2] was 12.6 µM, the GI50 [3] was 2.17 µM and the TGI [3] was 5.19 µM. For the same molecule, the GI50 [4] was 2.66 µM, the TGI [4] was 10.1 µM and the GI50 [5] was 8.55 µM. For the same molecule, the TGI [5] was 23.6 µM, the GI50 [6] was 2.9 µM and the TGI [6] was 7.72 µM. The GI50 [7] was 0.543 µM, the TGI [7] was 5.01 µM and the GI50 [8] was 3.41 µM. For the same molecule, the TGI [8] was 12.5 µM, the GI50 [9] was 3.63 µM and the TGI [9] was 15.2 µM. For the same molecule, the GI50 [10] was 3.99 µM, the TGI [10] was over 100 µM and the GI50 [11] was 4.09 µM. The TGI [11] was 15.3 µM, the GI50 [12] was 2.42 µM and the TGI [12] was 12.4 µM. It also gave a GI50 [13] of 2.48 µM, a TGI [13] of 8.03 µM and a GI50 [14] of 2.26 µM. The TGI [14] was 12.9 µM, the GI50 [15] was 3.13 µM and the TGI [15] was 14.5 µM. For the same molecule, the GI50 [16] was 1.84 µM, the TGI [16] was 5.09 µM and the GI50 [17] was 3.66 µM. For the same molecule, the TGI [17] was 16.3 µM, the GI50 [18] was 3.18 µM and the TGI [18] was 9.43 µM. For the same molecule, the GI50 [19] was 2.95 µM, the TGI [19] was 11.4 µM and the GI50 [20] was 2.18 µM. The TGI [20] was 6.79 µM, the GI50 [21] was 2.57 µM and the TGI [21] was 7.12 µM. The GI50 [22] was 2.3 µM, the TGI [22] was 7.45 µM and the GI50 [23] was 7.81 µM. For the same molecule, the TGI [23] was 21.1 µM, the GI50 [24] was 2.75 µM and the TGI [24] was 10.3 µM. The GI50 [25] was 11.5 µM, the TGI [25] was 25.3 µM and the GI50 [26] was 3.33 µM. The TGI [26] was 9.26 µM, the GI50 [27] was 4.33 µM and the TGI [27] was 16.4 µM. It also gave a GI50 [28] of 3.43 µM, a TGI [28] of 12.6 µM and a GI50 [29] of 3.2 µM. It also gave a TGI [29] of 24.7 µM, a GI50 [30] of 3.42 µM and a TGI [30] of 14.4 µM. It also gave a GI50 [31] of 2.52 µM, a TGI [31] of 15.8 µM and a GI50 [32] of 3.5 µM. It also gave a TGI [32] of 10.1 µM, a GI50 [33] of 5.25 µM and a TGI [33] of 49.2 µM. The GI50 [34] was 3.5 µM, the TGI [34] was 35.8 µM and the GI50 [35] was 3.06 µM. It also gave a TGI [35] of 12.2 µM, a GI50 [36] of 2.32 µM and a TGI [36] of 7.55 µM. It also gave a GI50 [37] of 3.86 µM, a TGI [37] of 15.9 µM and a GI50 [38] of 2.56 µM. For the same molecule, the TGI [38] was 12.9 µM, the GI50 [39] was 4.14 µM and the TGI [39] was 19.3 µM. For the same molecule, the GI50 [40] was 3.46 µM, the TGI [40] was 14.5 µM and the GI50 [41] was 3.89 µM. For the same molecule, the TGI [41] was 11.5 µM, the GI50 [42] was 3.41 µM and the TGI [42] was 12.3 µM. The GI50 [43] was 2.39 µM, the TGI [43] was 5.47 µM and the GI50 [44] was 2.48 µM. It also gave a TGI [44] of 12.4 µM, a GI50 [45] of 16.2 µM and a TGI [45] of 30.7 µM. For the same molecule, the GI50 [46] was 3.25 µM, the TGI [46] was 13 µM and the GI50 [47] was 2.24 µM. For the same molecule, the TGI [47] was 6.06 µM, the GI50 [48] was 3.85 µM and the TGI [48] was 22.3 µM. For the same molecule, the GI50 [49] was 4.23 µM, the TGI [49] was 18.9 µM and the GI50 [50] was 2.24 µM. The TGI [50] was 5.65 µM, the GI50 [51] was 2.27 µM and the TGI [51] was 6.72 µM. For the same molecule, the GI50 [52] was 3.07 µM, the TGI [52] was 29.6 µM and the GI50 [53] was 3.2 µM. The TGI [53] was 19.8 µM, the GI50 [54] was 3.65 µM and the TGI [54] was 15.1 µM. The GI50 [55] was 2.17 µM, the TGI [55] was 5.05 µM and the GI50 [56] was 3.86 µM. It also gave a TGI [56] of 13.9 µM, a GI50 [57] of 2.43 µM and a TGI [57] of over 100 µM.
